Assays:
sSema 4D = biological target: T1, sSema 4D (Homo sapiens, UniProt Q92854); test: ELISA binding affinity of TPs and SSPs to sSema 4D (and BSA)
T1 construct: purchased Novoprotein Ltd. (Suzhou, China)
T1 sequence (Q92854 22-734 limits assumed): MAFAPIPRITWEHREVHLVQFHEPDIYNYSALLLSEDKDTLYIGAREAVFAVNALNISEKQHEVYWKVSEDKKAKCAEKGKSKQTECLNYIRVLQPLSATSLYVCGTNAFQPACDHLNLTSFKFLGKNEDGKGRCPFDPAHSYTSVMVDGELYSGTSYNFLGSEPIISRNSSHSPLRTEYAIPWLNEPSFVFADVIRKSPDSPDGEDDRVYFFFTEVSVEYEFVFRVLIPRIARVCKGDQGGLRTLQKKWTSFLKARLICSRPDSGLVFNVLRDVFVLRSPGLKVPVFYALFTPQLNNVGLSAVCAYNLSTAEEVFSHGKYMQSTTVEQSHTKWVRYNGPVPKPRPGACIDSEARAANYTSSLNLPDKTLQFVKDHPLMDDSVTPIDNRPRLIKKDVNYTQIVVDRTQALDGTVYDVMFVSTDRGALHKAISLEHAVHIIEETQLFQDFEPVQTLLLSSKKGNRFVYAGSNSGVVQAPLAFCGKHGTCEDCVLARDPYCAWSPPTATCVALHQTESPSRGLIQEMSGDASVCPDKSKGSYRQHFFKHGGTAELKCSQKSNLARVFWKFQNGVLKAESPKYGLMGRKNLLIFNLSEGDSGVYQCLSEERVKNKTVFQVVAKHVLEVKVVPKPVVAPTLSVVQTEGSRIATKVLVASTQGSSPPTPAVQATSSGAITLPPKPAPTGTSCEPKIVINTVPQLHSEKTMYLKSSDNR
Experimental: To carry out the library screening, we first labeled the sSema4D with fluorescein isothiocyanate isomer (FITC), as shown in Figure 2E. Next, ≈10^6 beads library was incubated with FITC‐labeled sSema4D for 6 hours. The beads were thoroughly washed with DMF, water and methanol. Finally, under the fluorescence microscope, the beads with […] to sSema4D or FITC‐labeled sSema4D through noncovalent bonding were identified in Figure 2F. We selected twelve strongest putative fluorescent beads by physical separation. Subsequently, the corresponding peptides were cleaved off with BrCN from beads and analyzed by automatic Edman sequencing. The structures and sequence of transformable peptides (TPs) were determined and summarized (Figure S2, Supporting Information). TP‐1 to TP‐12 were resynthesized into solid phase and purified by high performance liquid chromatography (HPLC). The binding affinity of TPs toward sSema 4D was measured by enzyme‐linked immunosorbent assay (ELISA) and surface plasmon resonance imaging (SPRi). […] TP‐2 and TP‐7 were selected as the candidate TP binding sSema 4D to construct SSP. Subsequent SSP monomers (SSP‐1, sequence: C16‐FFVLK‐KQKRPRH; SSP‐2 C16‐FFVLK‐KNKAAKG) were synthesized and characterized by HPLC and Matrix‐assisted laser desorption/ionization time‐of‐flight mass spectrometry (MALDI‐TOF‐MS).

[1] = TEM morphology and size of SSP nanostructures; format: physicochemical; settings: for morphology after incubation with sSema4D: sSema4D 6 h, room temperature, mass ratio sSema4D/SSP 1/1000
Experimental: TP-1 to TP-12, SSP-1 and SSP-2 […]
were purchased by GL Biochem (Shanghai) Ltd.
Preparation of peptide-based nanomaterials. SSP-1 or SSP-2 monomers were dissolved in artificial tears at a concentration of 4.0 mM and sonicated for 30 min, followed by quick injection into water at a volume ratio of 1:200 for artificial tears and H2O to obtain the nanomaterials solution (20 μM).
TEM for the morphology. The SSP-1 or SSP-2 solution with the concentration of 20 μM (10 μL) was placed dropwise onto a copper mesh for 5 min, then most of the liquid was removed through a filter paper. Uranyl acetate solution (10 μL) were employed to stain the samples for 5 min, followed by drying the spare liquid with the filter. Finally, the copper mesh was washed with 10 μL of deionized water, which was blotted after staining and drying at room temperature. All of the samples were observed by TEM (Tecnai G2 20 S-TWIN) at an accelerating voltage of 120 kV. […]

Zeta potential of SSPs = format: physicochemical; settings: self-assembled SSP under aqueous condition
From the text: Artificial tears containing SSPs were developed and dropped into eyes. SSPs accumulated in the vitreous cavity. To examine the behavior of SSPs monomer in artificial tear, it was fast injected into water. Under the aqueous condition, the SSPs self‐assembled into spherical NPs or nanorods, a function of its to C16 and FFVLK domains with a hydrophobic unit. The morphology of SSP‐1 was NPs with the average size of 44.8 ± 2.9 nm. […] Besides, the zeta potential of SSP‐1 and SSP‐2 was positive charged with the value of 45.7 and 40.2 mV, respectively (Figure 3C). The positive charged SSPs penetrate blood‐eye barrier well.
In addition, KLVFF sequence, a sheet structure with strong hydrogen‐bonding was introduced into SSPs, we could distinctly observe the secondary structure of SSPs by circular dichroism (CD) spectroscopy. […] The percentage of β‐sheet after incubation with sSema4D in SSP‐1 and SSP‐2 were 85.6% and 42.3%, respectively, indicative of a highly organized packing of NFs in SSP‐1. […] The high percentage of β‐sheet structure in NFs stabilized the formation of nanostructure networks, due to its strong hydrogen‐bonding KLVFF sequence. Moreover, we carried out the cytotoxicity of SSP‐1 and SSP‐2 by using a standard CCK‐8 (Figure 3D). […] Finally, we investigated the recognition of sSema4D and SSP‐1 and SSP‐2 by confocal laser scanning microscope (CLSM).

OIR model = test: Oxygen-induced retinopathy (OIR) model, pathological retinal neovascularization; format: in vivo, mouse; settings: for reduction of pathological retinal neovascularization by eye drops plus anti-VEGF injection compared with anti-VEGF injection alone: isolectin B4, anti-VEGF antibody 2 µg intravitreal at P12, eye drops twice a day until P17, on average
Experimental: follows: 5’-[…]-3’, 5’- […]
OIR. OIR model was performed as previously described. The pups and their mothers […]
were exposed to 75% oxygen at 7-12 days after birth, and then exposed to indoor air […]
for another 5 days. At P17, the mice were anesthetized and sacrificed, and the retinas […]
Isolectin B4. Isolectin B4 staining for retinal blood vessel visualization is as […]
described above. After fixing the eyeball with 4% paraformaldehyde (overnight at 4 […]
degrees), the intact retina was peeled off using microscissors and micro tweezers.
After rupture of the membrane with 2% Triton X-100, the retina was placed in the […]
configured isolectin B4 staining (1:100) overnight at 4 degrees. Acquire multiple […]
overlapping (10-20% overlap) images using a fluorescence microscope and merge […]
them together in Adobe Photoshop to visualize the entire retina. Use ImageJ software to quantify the area of pathological neovascularization relative to the total retinal area. […]
Statistical analysis. Statistical analysis was conducted using Graphpad Prism 8.0 software. All data were expressed by mean ± SD. Unpaired two-tailed Student’s t-test (two groups) or one-way ANOVA (more than 2 groups) was used to analyze the statistical significances of the data. Person’s correlation analysis was conducted to […]

pericytes = test: Transwell migration of pericytes induced by recombinant Sema4D; format: cell-based, mouse; settings: transwell assay, n = 3
[2] = self-assembled in water, 20 μM, without sSema4D
[3] = eye drops 5 µL per eye twice daily P12 to P17, n = 8, equal to intraocular anti-Sema4D antibody
[4] = eye drops 5 µL per eye twice daily P12 to P17, vs littermate controls, n = 7
[5] = intravitreal injection at P12, retinas at P17, n = 8, effect equal to Sema4D antibody
[6] = intravitreal injection at P12, retinas at P17, vs littermate controls, n = 6

Substance	binding affinity with sSema4D on ELISA, compared with TPs (sSema 4D)	morphology after incubation with sSema4D [1]	average size of NPs [1, 2] [nm]	zeta potential (Zeta potential of SSPs) [mV]	pathological retinal vascular neovascularization (isolectin B4 staining) (OIR model; [3])	numbers of preretinal neovascular cells (OIR model; [4])	pathological retinal vascular neovascularization (isolectin B4 staining) (OIR model; [5])	numbers of preretinal neovascular cells (OIR model; [6])	reduction of pathological retinal neovascularization by eye drops plus anti-VEGF injection compared with anti-VEGF injection alone (OIR model) [%]	recombinant Sema4D protein-induced pericyte migration (pericytes)	average length of nanorods [1, 2] [nm]
C16‐FFVLK‐KQKRPRH [SSP-1, smart supramolecular peptide, C16‐FFVLK‐KQKRPRH, self-assembling, captures sSema4D]	higher binding affinity compared with TPs	dense NFs network structures	44.8 ± 2.9	45.7	decreased	significantly decreased	decreased	significantly reduced	25.72	reduced	–
C16‐FFVLK‐KNKAAKG [SSP-2, smart supramolecular peptide, C16‐FFVLK‐KNKAAKG, self-assembling, captures sSema4D]	higher binding affinity compared with TPs	long‐size of nanofibrillar structures	–	40.2	decreased	significantly decreased	decreased	significantly reduced	22.68	reduced	190 ± 23.9

From publication PMC9875641, “Ophthalmic Solution of Smart Supramolecular Peptides to Capture Semaphorin 4D against Diabetic Retinopathy” (Advanced Science, 2022)
